# In patent publication US8124599B2, “Method for treating neuronal and non-neuronal pain” (priority 2005, dated 2012):
# Assays:
# [1] = tested on: acute inflammatory muscle pain; assay: Formalin lick test for acute inflammatory muscle pain; format: in vivo, mice
# Description: The mice used in this work were C57B1/6 strain adults (8 weeks old) and AC1 knockout mice of C57B1/6 background (Wei et al., 2002; Neuron). The animals were housed on a 12 h: 12 h light: dark cycle with food and water available ad libidum. All the protocols were in accordance with the Animal Care Committee of the University of Toronto. Both wild type and the knockouts were well groomed. Experimenters were blind to genotype. Under brief halothane anesthesia, 10 μL of 5% formalin was injected to the left gastronemius muscle. The needle was directed from the lateral side to avoid any bony penetration and the tip was stopped at the middle of the muscle belly. The total time spent licking or biting the injected leg including the thigh and the paw was recorded and totaled every 5 minutes for a period of 2 hours. To study the effect of test compounds on behavior, each compound to be tested was injected intra-peritoneally 30 minutes before the intramuscular injection of formalin.
# [2] = tested on: combined chronic inflammatory pain and neuropathic pain; assay: Combination of chronic inflammatory pain and neuropathic pain, mechanical allodynia; format: in vivo, mice; conditions: i.p. pre-treatment
# Description: The mice used in this work were C57B1/6 strain adults (8 weeks old) and AC1 knockout mice of C57B1/6 background (Wei et al., 2002; Neuron). The animals were housed on a 12 h: 12 h light: dark cycle with food and water available ad libidum. All the protocols were in accordance with the Animal Care Committee of the University of Toronto. Both wild type and the knockouts were well groomed. Experimenters were blind to genotype. A muscle model of mechanical allodynia developed originally to study chronic pain (Sluka et al., 2001) was adapted for these experiments. Mice were briefly anaesthetized under halothane. 20μ liters carrageenan (3%, in normal saline pH 7.2) was injected intramuscularly deep into the left gastronemius muscle. Normal saline was used as a control. Injections were carried out on days 1 and 5. Behavioral nociceptive responses were measured on days 1, 2, 5 (before and after injection), 14 and 28. […] Mechanical allodynia was assessed based on the responsiveness of the hind paw to the application of von Frey filaments (Stoelting, Wood Dale, Ill.) to the point of bending. […] Ten trials were carried out each time at an interval of 5 minutes and the results were expressed as a percentage of positive responses. […] The effect of AC1 inhibition was assessed on maximal mechanical allodynia over the dorsum of the foot on the ipsilateral side of ligation on day 7. […]
# [3] = tested on: neuropathic pain; assay: Neuropathic pain (common peroneal nerve ligation), mechanical allodynia; format: in vivo, mice; conditions: 0.1 and 1 mg/kg body weight
# Description: The mice used in this work were C57B1/6 strain adults (8 weeks old) and AC1 knockout mice of C57B1/6 background (Wei et al., 2002; Neuron). The animals were housed on a 12 h: 12 h light: dark cycle with food and water available ad libidum. All the protocols were in accordance with the Animal Care Committee of the University of Toronto. Both wild type and the knockouts were well groomed. Experimenters were blind to genotype. Mice were placed in a plexi-glass restrainer and allowed to acclimate for 30 minutes prior to testing. Mechanical allodynia was assessed based on the responsiveness of the hind paw to the application of von Frey filaments (Stoelting, Wood Dale, Ill.) to the point of bending. Positive responses include licking, biting and sudden withdrawing of the hind paw. Experiments were carried out to characterize the threshold stimulus. […] This filament was then used to test mechanical allodynia. Ten trials were carried out each time at an interval of 5 minutes and the results were expressed as a percentage of positive responses. Positive responses included prolonged hind paw withdrawal followed by licking or scratching. Neuropathic pain was induced by ligating the common peroneal nerve as previously known in the art. […] The effect of AC1 inhibition was assessed on maximal mechanical allodynia over the dorsum of the foot on the ipsilateral side of ligation on day 7. […]
# [4] = tested on: chronic inflammatory muscle pain; assay: Chronic inflammatory muscle pain (intramuscular carrageenan), mechanical allodynia by von Frey filament; format: in vivo, mice
# Description: The mice used in this work were C57B1/6 strain adults (8 weeks old) and AC1 knockout mice of C57B1/6 background (Wei et al., 2002; Neuron). The animals were housed on a 12 h: 12 h light: dark cycle with food and water available ad libidum. All the protocols were in accordance with the Animal Care Committee of the University of Toronto. Both wild type and the knockouts were well groomed. Experimenters were blind to genotype. A muscle model of mechanical allodynia developed originally to study chronic pain (Sluka et al., 2001) was adapted for these experiments. Mice were briefly anaesthetized under halothane. 20μ liters carrageenan (3%, in normal saline pH 7.2) was injected intramuscularly deep into the left gastronemius muscle. Normal saline was used as a control. Injections were carried out on days 1 and 5. Behavioral nociceptive responses were measured on days 1, 2, 5 (before and after injection), 14 and 28. Mice were placed in a plexi-glass restrainer and allowed to acclimate for 30 minutes prior to testing. Mechanical allodynia was assessed based on the responsiveness of the hind paw to the application of von Frey filaments (Stoelting, Wood Dale, Ill.) to the point of bending. […] Ten trials were carried out each time at an interval of 5 minutes and the results were expressed as a percentage of positive responses. […]
# [5] = tested on: mechanical allodynia in pain model; assay: Oral administration to pain model (rat), mechanical allodynia; format: in vivo; conditions: 1 mg/kg/3 ml, as compared with the response to gabapentin
Structure (SMILES),"dose of peak response, licking response of acute muscle inflammatory pain ([1]; dose range 0.1 to 5 mg/kg) [mg/kg body weight]","licking response of acute muscle inflammatory pain ([1]; dose range of 0.1 to 5 mg/kg bodyweight, intra-peritoneally 30 minutes before formalin, P<0.001)",mechanical allodynia in combined chronic inflammatory and neuropathic pain ([2]; 0.1 and 1 mg/kg body weight),allodynia in neuropathic pain [3],"mechanical allodynia in chronic inflammatory muscle pain, comparison of dosages ([4]; 1 mg/kg versus 0.1 mg/kg)","mechanical allodynia in chronic inflammatory muscle pain ([4]; 0.1 and 1 mg/kg body weight, von Frey filament)",mechanical allodynia after oral administration [5],mechanical allodynia in combined chronic inflammatory and neuropathic pain ([2]; 0.1 mg/kg and 1.1 mg/kg body weight)
Nc1ncnc2c1ncn2CCNCCCCCO [HTS09836],1,significant reduction,significantly reduced,significantly reduced,superior effect,significant reduction in mechanical allodynia,–,–
Nc1ncnc2c1ncn2CCNCCCCCO [NB001],–,–,–,–,–,–,significant reduction in mechanical allodynia,significantly reduced
